Source: patent publication US20250064941A1, “SIGLEC LIGANDS, CONJUGATES, AND METHODS OF USE THEREOF” (Osprey Biopharmaceuticals, Inc., priority 2023, published 2025)

Columns and labels:
[1] = biological target: T1, human Siglec-2/CD22 protein (Homo sapiens, UniProt P20273); assay: SPR binding affinity to human CD22; conditions: steady-state analysis
T1 construct: purchased Acro Biosystems SI2-H82E3
T1 sequence (P20273 20-847): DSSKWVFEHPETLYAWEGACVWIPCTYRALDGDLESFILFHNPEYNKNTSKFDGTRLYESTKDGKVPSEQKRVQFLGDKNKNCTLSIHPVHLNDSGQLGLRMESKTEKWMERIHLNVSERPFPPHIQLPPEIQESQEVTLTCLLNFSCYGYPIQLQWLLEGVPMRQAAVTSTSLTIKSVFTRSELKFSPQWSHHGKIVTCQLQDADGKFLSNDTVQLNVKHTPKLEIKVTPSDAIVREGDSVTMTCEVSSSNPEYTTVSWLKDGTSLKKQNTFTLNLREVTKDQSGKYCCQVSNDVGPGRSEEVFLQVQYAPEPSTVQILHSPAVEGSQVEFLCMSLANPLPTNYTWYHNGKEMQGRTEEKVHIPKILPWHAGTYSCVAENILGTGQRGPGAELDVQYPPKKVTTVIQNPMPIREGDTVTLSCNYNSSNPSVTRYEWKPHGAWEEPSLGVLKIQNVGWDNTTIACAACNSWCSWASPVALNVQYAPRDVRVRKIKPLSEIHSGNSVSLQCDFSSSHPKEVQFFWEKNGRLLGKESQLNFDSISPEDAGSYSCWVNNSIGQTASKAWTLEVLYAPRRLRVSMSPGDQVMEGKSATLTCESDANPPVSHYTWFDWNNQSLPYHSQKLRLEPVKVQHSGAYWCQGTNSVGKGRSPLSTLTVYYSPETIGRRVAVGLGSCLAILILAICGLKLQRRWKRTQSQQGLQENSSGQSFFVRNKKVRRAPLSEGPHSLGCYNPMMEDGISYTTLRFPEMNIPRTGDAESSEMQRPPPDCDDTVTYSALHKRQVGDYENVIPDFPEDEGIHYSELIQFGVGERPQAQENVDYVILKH
In short: (§1)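 Biotinylated CD22 desialylated with SialoExo (4 h, 37° C) before capture on streptavidin chip. Running buffer 10 mM HEPES, 150 mM NaCl, 0.05% Tween-20, pH 7.5, 1% DMSO, with DMSO solvent correction; 120 s dissociation. Compound affinities from steady-state analysis.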

cynomolgus Siglec-2/CD22 = cynomolgus Siglec-2/CD22 (Macaca fascicularis, UniProt A0A2K5WCZ6); assay: biochemical; format: binding; conditions: SPR, steady-state analysis; read-out: Affinity cyno CD22
cynomolgus Siglec-2/CD22, sequence (A0A2K5WCZ6 entry or part of it): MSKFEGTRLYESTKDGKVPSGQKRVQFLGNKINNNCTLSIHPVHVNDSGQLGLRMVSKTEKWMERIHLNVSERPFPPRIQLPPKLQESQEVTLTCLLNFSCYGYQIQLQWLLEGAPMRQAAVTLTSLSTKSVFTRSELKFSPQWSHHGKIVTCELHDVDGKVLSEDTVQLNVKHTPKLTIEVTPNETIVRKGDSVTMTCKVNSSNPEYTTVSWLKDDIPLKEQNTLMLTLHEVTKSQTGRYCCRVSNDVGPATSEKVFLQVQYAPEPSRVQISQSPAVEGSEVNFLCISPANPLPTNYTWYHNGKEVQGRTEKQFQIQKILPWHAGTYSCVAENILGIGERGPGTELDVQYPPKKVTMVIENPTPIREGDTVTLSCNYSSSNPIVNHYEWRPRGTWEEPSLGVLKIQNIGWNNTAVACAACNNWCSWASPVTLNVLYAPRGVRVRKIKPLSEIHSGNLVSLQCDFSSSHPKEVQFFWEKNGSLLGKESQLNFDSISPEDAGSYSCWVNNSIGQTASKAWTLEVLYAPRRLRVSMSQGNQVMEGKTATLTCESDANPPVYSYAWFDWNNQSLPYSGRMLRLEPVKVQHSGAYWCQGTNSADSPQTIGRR
In short: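 Compound binding measured by steady-state SPR analysis, 120 s dissociation, in HEPES-NaCl-Tween buffer pH 7.5 containing 1% DMSO, DMSO solvent-corrected. Surface: cyno CD22, sialic acids first stripped by SialoExo for 4 h at 37° C., then amine-coupled onto CM5.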

[2] = biological target: T2, mouse Siglec-2-Fc-Avi (CD22) (Mus musculus, UniProt P35329); assay: SPR binding affinity to mouse CD22; conditions: steady-state analysis
T2 construct: made in house
T2 sequence (P35329 22-708 limits assumed): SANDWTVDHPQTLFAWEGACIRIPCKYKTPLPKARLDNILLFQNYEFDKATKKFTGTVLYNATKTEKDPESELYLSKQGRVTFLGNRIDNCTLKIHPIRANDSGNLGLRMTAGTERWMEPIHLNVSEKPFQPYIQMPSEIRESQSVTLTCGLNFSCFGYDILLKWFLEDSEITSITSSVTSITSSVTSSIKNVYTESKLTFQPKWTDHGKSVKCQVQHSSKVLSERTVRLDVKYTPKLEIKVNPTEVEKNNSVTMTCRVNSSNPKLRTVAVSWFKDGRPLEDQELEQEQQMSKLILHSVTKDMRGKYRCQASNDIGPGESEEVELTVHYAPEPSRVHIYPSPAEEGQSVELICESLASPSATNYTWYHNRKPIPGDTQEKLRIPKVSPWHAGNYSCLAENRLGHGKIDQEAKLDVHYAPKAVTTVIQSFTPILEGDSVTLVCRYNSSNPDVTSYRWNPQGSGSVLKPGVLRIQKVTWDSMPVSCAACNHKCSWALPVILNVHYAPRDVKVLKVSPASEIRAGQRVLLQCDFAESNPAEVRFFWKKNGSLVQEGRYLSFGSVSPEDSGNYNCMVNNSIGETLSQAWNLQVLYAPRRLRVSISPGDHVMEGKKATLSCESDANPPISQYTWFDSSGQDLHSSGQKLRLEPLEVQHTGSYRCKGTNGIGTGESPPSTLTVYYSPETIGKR
In short: as §1

Structure (SMILES)	Kd [1]	Kd (cynomolgus Siglec-2/CD22)	Kd [2]
C#CCOCCCCCCO[C@]1(C(=O)O)C[C@H](O)[C@@H](NC(=O)CO)[C@H]([C@H](O)[C@H](O)CNC(=O)Cc2ccc(C#N)cc2)O1 [Compound 162, (2R,4S,5R,6R)-6-((1R,2R)-3-(2-(4-cyanophenyl)acetamido)-1,2-dihydroxypropyl)-4-hydroxy-5-(2-hydroxyacetamido)-2-((6-(prop-2-yn-1-yloxy)hexyl)oxy)tetrahydro-2H-pyran-2-carboxylic acid]	1000 to 10000 nM	< 1000 nM	1000 to 10000 nM
C#CCOCCCCCCO[C@]1(C(=O)O)C[C@H](O)[C@@H](NC(=O)CO)[C@H]([C@H](O)[C@H](O)CNC(=O)Cc2ccc(C(C)(C)C)cc2)O1 [Compound 160, (2R,4S,5R,6R)-6-((1R,2R)-3-(2-(4-(tert-butyl)phenyl)acetamido)-1,2-dihydroxypropyl)-4-hydroxy-5-(2-hydroxyacetamido)-2-((6-(prop-2-yn-1-yloxy)hexyl)oxy)tetrahydro-2H-pyran-2-carboxylic acid]	< 1000 nM	< 1000 nM	1000 to 10000 nM
C#CCCOc1ccc(CO[C@]2(C(=O)O)C[C@H](O)[C@@H](NC(=O)CO)[C@H]([C@H](O)[C@H](O)CNC(=O)Cc3ccc(-c4ccc(O)cc4)cc3)O2)cc1 [Compound 77, (2R,4S,5R,6R)-2-((4-(but-3-yn-1-yloxy)benzyl)oxy)-6-((1R,2R)-1,2-dihydroxy-3-(2-(4′-hydroxy-[1,1′-biphenyl]-4-yl)acetamido)propyl)-4-hydroxy-5-(2-hydroxyacetamido)tetrahydro-2H-pyran-2-carboxylic acid]	< 1000 nM	< 1000 nM	< 1000 nM
C#CCCCCCCS[C@]1(C(=O)O)C[C@H](O)[C@@H](NC(=O)CO)[C@H]([C@H](O)[C@H](O)CNC(=O)Cc2ccc(-c3ccc(O)cc3)cc2)O1 [Compound 49, (2S,4S,5R,6R)-6-((1R,2R)-1,2-dihydroxy-3-(2-(4′-hydroxy-[1,1′-biphenyl]-4-yl)acetamido)propyl)-4-hydroxy-5-(2-hydroxyacetamido)-2-(oct-7-yn-1-ylthio)tetrahydro-2H-pyran-2-carboxylic acid]	< 1000 nM	< 1000 nM	< 1000 nM
C#CCOCCCCCCC(O)[C@]1(C(=O)O)C[C@H](O)[C@@H](NC(=O)CO)[C@H]([C@H](O)[C@H](O)CNC(=O)Cc2ccc(Cl)cc2)O1 (stereo partly drawn) [Compound 103, (2S,4S,5R,6R)-6-((1R,2R)-3-(2-(4-chlorophenyl)acetamido)-1,2-dihydroxypropyl)-4-hydroxy-2-(1-hydroxy-7-(prop-2-yn-1-yloxy)heptyl)-5-(2-hydroxyacetamido)tetrahydro-2H-pyran-2-carboxylic acid]	< 1000 nM	< 1000 nM	1000 to 10000 nM
C#CCOCCOCCO[C@]1(C(=O)O)C[C@H](O)[C@@H](NC(=O)CO)[C@H]([C@H](O)[C@H](O)CNC(=O)Cc2cc(F)cc(C(F)(F)F)c2)O1 [Compound 133, (2R,4S,5R,6R)-6-((1R,2R)-3-(2-(3-fluoro-5-(trifluoromethyl)phenyl)acetamido)-1,2-dihydroxypropyl)-4-hydroxy-5-(2-hydroxyacetamido)-2-(2-(2-(prop-2-yn-1-yloxy)ethoxy)ethoxy)tetrahydro-2H-pyran-2-carboxylic acid]	< 1000 nM	< 1000 nM	> 10000 nM
C#CCCOc1ccc(CO[C@]2(C(=O)O)C[C@H](O)[C@@H](NC(=O)CO)[C@H]([C@H](O)[C@H](O)CNC(=O)Cc3ccc(-c4ccccc4)cc3)O2)cc1 [Compound 37, (2R,4S,5R,6R)-6-((1R,2R)-3-(2-([1,1′-biphenyl]-4-yl)acetamido)-1,2-dihydroxypropyl)-2-((4-(but-3-yn-1-yloxy)benzyl)oxy)-4-hydroxy-5-(2-hydroxyacetamido)tetrahydro-2H-pyran-2-carboxylic acid]	< 1000 nM	< 1000 nM	< 1000 nM
C#CCOCCOCCO[C@]1(C(=O)O)C[C@H](O)[C@@H](NC(=O)CO)[C@H]([C@H](O)[C@H](O)CNC(=O)Cc2ccc(-c3ccc4[nH]ccc4c3)cc2)O1 [Compound 4, (2R,4S,5R,6R)-6-((1R,2R)-3-(2-(4-(1H-indol-5-yl)phenyl)acetamido)-1,2-dihydroxypropyl)-4-hydroxy-5-(2-hydroxyacetamido)-2-(2-(2-(prop-2-yn-1-yloxy)ethoxy)ethoxy)tetrahydro-2H-pyran-2-carboxylic acid]	< 1000 nM	< 1000 nM	< 1000 nM
C#CCOCCCCCCO[C@]1(C(=O)O)C[C@H](O)[C@@H](NC(=O)C(F)(F)F)[C@H]([C@H](O)[C@H](O)CNC(=O)Cc2ccc(Cl)cc2)O1 [Compound 90, (2R,4S,5R,6R)-6-((1R,2R)-3-(2-(4-chlorophenyl)acetamido)-1,2-dihydroxypropyl)-4-hydroxy-2-((6-(prop-2-yn-1-yloxy)hexyl)oxy)-5-(2,2,2-trifluoroacetamido)tetrahydro-2H-pyran-2-carboxylic acid]	< 1000 nM	< 1000 nM	1000 to 10000 nM
CC(=O)NCCOCCOCCOCCOCCNc1c(NCCCCCCO[C@]2(C(=O)O)C[C@H](O)[C@@H](NC(=O)CO)[C@H]([C@H](O)[C@H](O)CNC(=O)Cc3ccc(-c4nnn[nH]4)cc3)O2)c(=O)c1=O [Cpd. 265, (2R,4S,5R,6R)-6-((1R,2R)-3-(2-(4-(1H-tetrazol-5-yl)phenyl)acetamido)-1,2-dihydroxypropyl)-2-((6-((3,4-dioxo-2-((2-oxo-6,9,12,15-tetraoxa-3-azaheptadecan-17-yl)amino)cyclobut-1-en-1-yl)amino)hexyl)oxy)-4-hydroxy-5-(2-hydroxyacetamido)tetrahydro-2H-pyran-2-carboxylic acid]	< 1000 nM	< 1000 nM	< 1000 nM
C#CCOC[C@H](O)[C@@H](O)CO[C@]1(C(=O)O)C[C@H](O)[C@@H](NC(=O)CO)[C@H]([C@H](O)[C@H](O)CNC(=O)Cc2ccc(Cl)cc2)O1 [Compound 24, (2R,4S,5R,6R)-6-((1R,2R)-3-(2-(4-chlorophenyl)acetamido)-1,2-dihydroxypropyl)-2-((2S,3S)-2,3-dihydroxy-4-(prop-2-yn-1-yloxy)butoxy)-4-hydroxy-5-(2-hydroxyacetamido)tetrahydro-2H-pyran-2-carboxylic acid]	1000 to 10000 nM	1000 to 10000 nM	> 10000 nM
O=C(O)CCCCCCO[C@]1(C(=O)O)C[C@H](O)[C@@H](NC(=O)CO)[C@H]([C@H](O)[C@H](O)CNC(=O)Cc2ccc(Cl)cc2)O1 [Compound 98, (2R,4S,5R,6R)-2-((6-carboxyhexyl)oxy)-6-((1R,2R)-3-(2-(4-chlorophenyl)acetamido)-1,2-dihydroxypropyl)-4-hydroxy-5-(2-hydroxyacetamido)tetrahydro-2H-pyran-2-carboxylic acid]	< 1000 nM	< 1000 nM	1000 to 10000 nM
CC(=O)NCCOCCOCCOCCOCCNc1c(NCCCCCCO[C@]2(C(=O)O)C[C@H](O)[C@@H](NC(C)=O)[C@H]([C@H](O)[C@H](O)CNC(=O)c3cccc(Cl)c3)O2)c(=O)c1=O [Compound 273, (2R,4S,5R,6R)-5-acetamido-6-((1R,2R)-3-(3-chlorobenzamido)-1,2-dihydroxypropyl)-2-((6-((3,4-dioxo-2-((2-oxo-6,9,12,15-tetraoxa-3-azaheptadecan-17-yl)amino)cyclobut-1-en-1-yl)amino)hexyl)oxy)-4-hydroxytetrahydro-2H-pyran-2-carboxylic acid]	1000 to 10000 nM	1000 to 10000 nM	> 10000 nM
